Data: US20200187507A1, “INOCULANTS INCLUDING PLANT GROWTH PRODUCING RHIZOBACTERIA (PGPR) AND INSECTIDES FOR PROMOTING PLANT GROWTH AND HEALTH” (Auburn University, priority 2018, published 2020)

Columns and labels:
Bacillus pumilus AP 7 = test: Bacterial strains and insecticide compatibility (mixed in tubes, CFU counts); format: cell-based; conditions: Example 1; mixed for 2 wk at label rates
Experimental: The strains of Blend 20, each with a minimum concentration of 1×10^8 CFU per ml were individually evaluated for their compatibility with commonly used liquid insecticides. The strains were evaluated individually to make recovery of each bacterium apparent, as the colony morphologies are similar. Freshly prepared bacteria stock solutions were evaluated for their ability to survive being ‘tank’ mixed with insecticides in 50 ml centrifuge tubes with three different insecticides mixed together for 1 h, 24 h, and 1 wk, and 2 wk at 25 s ° C. under ambient light. The bacteria were evaluated for compatibility with insecticides which included three chemical groups: neonicotinoids, phenylpyrazoles, and pyrethroids. The pesticides evaluated were bifenthrin (Talstar Pro, FMC Corporation, Philadelphia, Pa.), fipronil (Termidor SC, BASF Corporation, Florham Park, N.J.), imidacloprid (Merit 2F, Bayer, Research Triangle Park, N.C.). […] Bifenthrin and fipronil were evaluated at high and low label rates. […] Bacterial populations (number of colony forming units [CFU]) in the suspensions were determined by plating 50 μl of the 10^−5 serial dilutions onto three TSA plates, incubating plates for 24 h and then counting the number of bacterial colonies on each plate.
Bacterial strains from multiple genera with known populations (minimum of 1×10^8 colony forming units (CFU)/ml (0.03 oz)) were evaluated individually for their compatibility with commonly turfgrass insecticides. […]
The strains that comprise Blend 20, each with aminimum concentration of 1×10^8 CFU per ml, were individually evaluated for their compatibility with commonly used liquid neonicotinoid insecticides. The strains within the blend were evaluated individually to make recovery of each bacterium apparent, as the colony morphologies are similar. Freshly prepared bacteria stock solutions were evaluated for survival when mixed with three different insecticides mixed in separate 50 mL centrifuge tubes for 1 and 24 h, and 1 and 2 wk at 25° C. under ambient light. […]

Bacillus pumilus AP 18 = test: as above; format: cell-based; conditions: Example 1; mixed for 2 wk at label rates
Experimental: (§1) The strains of Blend 20, each with a minimum concentration of 1×10^8 CFU per ml were individually evaluated for their compatibility with commonly used liquid insecticides. The strains were evaluated individually to make recovery of each bacterium apparent, as the colony morphologies are similar. Freshly prepared bacteria stock solutions were evaluated for their ability to survive being ‘tank’ mixed with insecticides in 50 ml centrifuge tubes with three different insecticides mixed together for 1 h, 24 h, and 1 wk, and 2 wk at 25 s ° C. under ambient light. The bacteria were evaluated for compatibility with insecticides which included three chemical groups: neonicotinoids, phenylpyrazoles, and pyrethroids. The pesticides evaluated were bifenthrin (Talstar Pro, FMC Corporation, Philadelphia, Pa.), fipronil (Termidor SC, BASF Corporation, Florham Park, N.J.), imidacloprid (Merit 2F, Bayer, Research Triangle Park, N.C.). While Termidor SC is not used on golf courses, it was selected for convenience because the active ingredient (Fipronil) is formulated as a granular product and widely used for mole cricket management (24). Bacteria and pesticide solutions were prepared based on the label recommendations for volume of area covered (bifenthrin, imidacloprid) or amount of active ingredient per volume needed (fipronil). Bifenthrin and fipronil were evaluated at high and low label rates. Bifenthrin was mixed at a rate of 29.6 and 14.8 ml per 92.9 m^2 (7.9% active ingredient, 302 g per 3,785 ml). Imidacloprid was mixed a rate of 17 ml per 92.9 m^2 (21.4%, 907 g per 3,785 ml). Fipronil was prepared at 47.3 (0.125% dilution) and 23.65 ml (0.06% dilution) per 3,785 ml (9.1% active ingredient, 363 g per 3,785 ml). After the allotted time, the centrifuge tubes were vigorously shaken to evenly distribute bacterial cells before serial 10-fold dilutions. Serial dilutions were made of each bacterial suspension into sterile water blanks to a final dilution of 10^−5. Bacterial populations (number of colony forming units [CFU]) in the suspensions were determined by plating 50 μl of the 10^−5 serial dilutions onto three TSA plates, incubating plates for 24 h and then counting the number of bacterial colonies on each plate.
(§2) The strains that comprise Blend 20, each with aminimum concentration of 1×10^8 CFU per ml, were individually evaluated for their compatibility with commonly used liquid neonicotinoid insecticides. The strains within the blend were evaluated individually to make recovery of each bacterium apparent, as the colony morphologies are similar. Freshly prepared bacteria stock solutions were evaluated for survival when mixed with three different insecticides mixed in separate 50 mL centrifuge tubes for 1 and 24 h, and 1 and 2 wk at 25° C. under ambient light. Bacteria and pesticide solutions were prepared based on the label recommendations for volume of area covered. The pesticides evaluated were imidacloprid (Ferti-lome® Tree and Shrub Systemic Insect Drench, 1.47% active ingredient, Voluntary Purchasing Groups, Inc., Bonham, Tex., USA), imidacloprid (Merit® 2F, 21.4% active ingredient, Bayer Environmental Sciences, Research Triangle Park, N.C., USA), and imidacloprid and clothianidin (Bayer Advanced 12 Month Tree and Shrub Protect and Feed II®, 0.74% imidacloprid and 0.37% clothianidin active ingredient, Bayer Environmental Sciences). The Ferti-lome® product was mixed at a rate of 89 mL of product per 3785 mL. Merit® 2F was mixed at a rate of 17 mL of product per 92.9 m^2. Bayer Advanced Tree and Shrub Protect and Feed II® was mixed at a rate of 89 mL of product per 3785 mL.
(§3) After the allotted time, the centrifuge tubes were vigorously shaken to evenly distribute bacterial cells before completing five serial 10-fold dilutions. Serial dilutions were made of each bacterial suspension into sterile water blanks to a final dilution of 10^−5. […]

[1] = system: Bacillus sphaericus AP 282; test: as above; format: cell-based; conditions: Example 1; mixed for 2 wk at label rates
Experimental: as §1, §2, §3

tawny mole crickets = test: Field plots: tawny mole cricket damage ratings (Cobb and Mack); format: in vivo, Neoscapteriscus vicinus Scudder; conditions: scale 0-9
Experimental: On 26 Mar. 2017 field plots were established at the Auburn University Turfgrass Research Unit, Auburn, Ala. over hybrid and common bermudagrass tawny mole cricket infested areas in a Marvyn loamy sand. Plots were 3 m×2 m with at least 2 m separating plots. Field plots were assessed for mole cricket damage based on the rating system of Cobb and Mack (26). A 1 m×1 m frame divided into a grid with 9 subsections was used to score the plots on a scale of 0-9, where 0 indicates no damage and 9 indicates activity in each section. After the initial assessment, plots were assigned to a treatment group based on damage ratings. […] Damage assessments were taken from seven locations (center, top left, top right, bottom left, bottom right, middle left, and middle right), with one location sampled during each damage assessment period for all treatments. The experiment evaluated four treatments, PGPR-treated (Blend 20), bifenthrin-treated, PGPR+bifenthrin-treated, and non-treated control. On 27 Mar. 2017 (Day 0) and 23 April (Day 27) plots were treated with a backpack sprayer. Bacteria-treated plots received 3 L (500 ml/m^2) freshly-prepared aqueous bacterial suspension of 1×10^7 CFU per ml. Bifenthrin-treated plots were treated at a rate of 29.6 ml per 92.9 m^2. The sprayer applied 244 ml of this mixture per plot. PGPR+ bifenthrin plots were treated with the 3 L of bacteria and 244 ml of bifenthrin mixed together in the same tank. The non-treated plots were treated with 3 L of distilled water coincident with treatment of the other plots. After treating, the plots were hand watered with 76.2 L of water (1.27 cm) to move the treatments into the root zone. The experiment was replicated six times for each treatment.
Top growth (fresh and dry mass) in the cylinder trials were analyzed separately using repeated measures of multivariate analysis of covariance (MANCOVA) due to trial being a significant factor (P<0.05, JMP Version 13. SAS Institute Inc., Cary, N.C., 1989-2007). Root fresh and dry mass, and length were analyzed using orthogonal contrasts (P<0.05, JMP Version 13. SAS Institute Inc., Cary, N.C., 1989-2007). The number of mole crickets recovered and mole cricket weights from each treatment were used as covariants. Mole cricket weights were analyzed using analysis of variance (ANOVA), Student's t-test. The number of mole crickets recovered and mole cricket weights within treatments were not significant in either PVC arena trial. For the field trial, LSMeans, Student's t-Test (LSD, P<0.05) was used to compare each sampling period's mole cricket damage ratings.

Pseudomonas fluorescens = conditions: imidacloprid as cotton seed treatment; cited from earlier work

Compound: Cc1c(COC(=O)[C@@H]2[C@H](/C=C(\Cl)C(F)(F)F)C2(C)C)cccc1-c1ccccc1 (racemic) [Bifenthrin, bifenthrin]
- bacterial populations when mixed with insecticide (Bacillus pumilus AP 7): not negatively impacted
- bacterial populations when mixed with insecticide (Bacillus pumilus AP 18): not negatively impacted
- bacterial populations when mixed with insecticide [1]: not negatively impacted
- Mean Mole Cricket Damage Rating (tawny mole crickets; 0 days after treatment): 7.52a
- Mean Mole Cricket Damage Rating (tawny mole crickets; 14 days after treatment): 7.95a
- Mean Mole Cricket Damage Rating (tawny mole crickets; 21 days after treatment): 7.14a
- Mean Mole Cricket Damage Rating (tawny mole crickets; 28 days after treatment (1 after re-treatment)): 1.71b
- Mean Mole Cricket Damage Rating (tawny mole crickets; 33 days after treatment (5 after re-treatment)): 5.10ab
- Mean Mole Cricket Damage Rating (tawny mole crickets; 42 days after treatment (15 after re-treatment)): 3.90ab
- Mean Mole Cricket Damage Rating (tawny mole crickets; 46 days after treatment (19 after re-treatment)): 1.48b
- Mean Mole Cricket Damage Rating (tawny mole crickets; 50 days after treatment (23 after re-treatment)): 1.86b
- Mean Mole Cricket Damage Rating (tawny mole crickets; 56 days after treatment (29 after re-treatment)): 4.43b

Compound: N#Cc1nn(-c2c(Cl)cc(C(F)(F)F)cc2Cl)c(N)c1[S+]([O-])C(F)(F)F (stereo not shown) [Fipronil, fipronil]
- bacterial populations when mixed with insecticide (Bacillus pumilus AP 7): not negatively impacted
- bacterial populations when mixed with insecticide (Bacillus pumilus AP 18): not negatively impacted
- bacterial populations when mixed with insecticide [1]: not negatively impacted

Compound: O=[N+]([O-])NC1=NCCN1Cc1ccc(Cl)nc1 [Imidacloprid, imidacloprid]
- bacterial populations when mixed with insecticide (Bacillus pumilus AP 7): not negatively impacted
- bacterial populations when mixed with insecticide (Bacillus pumilus AP 18): not negatively impacted
- bacterial populations when mixed with insecticide [1]: not negatively impacted
- Pseudomonas fluorescens populations when mixed with pesticide or extract (Pseudomonas fluorescens): negatively impacted

Compound: CC[C@H](C)[C@H]1O[C@]2(C=C[C@@H]1C)C[C@@H]1C[C@@H](C/C=C(\C)[C@@H](O[C@H]3C[C@H](OC)[C@@H](O[C@H]4C[C@H](OC)[C@@H](O)[C@H](C)O4)[C@H](C)O3)[C@@H](C)/C=C/C=C3\CO[C@@H]4[C@H](O)C(C)=C[C@@H](C(=O)O1)[C@]34O)O2 [avermectin]
- Pseudomonas fluorescens populations when mixed with pesticide or extract (Pseudomonas fluorescens): remained stable

Compound: O=C1C2CC=CCC2C(=O)N1SC(Cl)(Cl)Cl (stereo not shown) [captan]
- Pseudomonas fluorescens populations when mixed with pesticide or extract (Pseudomonas fluorescens): negatively impacted

Compound: COC(=O)Nc1nc2ccccc2[nH]1 [carbendazim]
- Pseudomonas fluorescens populations when mixed with pesticide or extract (Pseudomonas fluorescens): not negatively impacted

Compound: CNC(=O)Oc1cccc2c1OC(C)(C)C2 [carbofuran]
- Pseudomonas fluorescens populations when mixed with pesticide or extract (Pseudomonas fluorescens): remained stable

Compound: CCOP(=S)(OCC)Oc1nc(Cl)c(Cl)cc1Cl [chlorpyriphos]
- Pseudomonas fluorescens populations when mixed with pesticide or extract (Pseudomonas fluorescens): remained stable

Compound: COC(=O)N(C(=O)N1CO[C@@]2(C(=O)OC)Cc3cc(Cl)ccc3C2=N1)c1ccc(OC(F)(F)F)cc1 [indoxacarb]
- Pseudomonas fluorescens populations when mixed with pesticide or extract (Pseudomonas fluorescens): not

Compound: CCCC1COC(Cn2cncn2)(c2ccc(Cl)cc2Cl)O1 (stereo not shown) [propiconazole]
- Pseudomonas fluorescens populations when mixed with pesticide or extract (Pseudomonas fluorescens): negatively impacted

Compound: CN(C)C(=S)SSC(=S)N(C)C [thiram]
- Pseudomonas fluorescens populations when mixed with pesticide or extract (Pseudomonas fluorescens): not negatively impacted

Compound: mancozeb
- Pseudomonas fluorescens populations when mixed with pesticide or extract (Pseudomonas fluorescens): negatively impacted
